Test results: patent US20190274968A1 (priority 2016, published 2019)

System: luciferase
Format: in vivo, BALB/c mice
Details: LNP with the indicated cationic lipid; 3 μg Luciferase mRNA-LNP intradermal

CCCCCCCCC(CCCCCC)C(=O)OCCCCCCN(CCCCCCOC(=O)C(CCCCCC)CCCCCCCC)CCN(C)C (stereo not drawn) [Compound I-5]
delivery of mRNA (expression of luciferase measured by IVIS): effectively delivered

CCCCCCCCC(CCCCCC)C(=O)OCCCCCCCCCN(CCCCCCCCCOC(=O)C(CCCCCC)CCCCCCCC)CCN(C)C (stereo not drawn) [Compound I-6]
delivery of mRNA (expression of luciferase measured by IVIS): effectively delivered

CCCCCCCCC(=O)N(CCCN(C)C)C(CCCCCCCCC(=O)OCC(CCCC)CCCCCC)CCCCCCCCC(=O)OCC(CCCC)CCCCCC (stereo not drawn) [II-9]
delivery of mRNA (expression of luciferase measured by IVIS): effectively delivered

CCCCCCCC(=O)N(CCCN(C)C)C(CCCCCCCCC(=O)OC(CCCCCC)CCCCCC)CCCCCCCCC(=O)OC(CCCCCC)CCCCCC [II-10]
delivery of mRNA (expression of luciferase measured by IVIS): effectively delivered

CCCCCCCCC(=O)N(CCCN(C)C)C(CCCCCCCCC(=O)OC(CCCCCC)CCCCCC)CCCCCCCCC(=O)OC(CCCCCC)CCCCCC [II-11]
delivery of mRNA (expression of luciferase measured by IVIS): effectively delivered

CCCCCCCCC(CCCCCC)COC(=O)CCCCCCCCC(CCCCCCCCC(=O)OCC(CCCCCC)CCCCCCCC)N(CCCN(C)C)C(=O)CCCCCCC (stereo not drawn) [II-12]
delivery of mRNA (expression of luciferase measured by IVIS): effectively delivered

CCCCCCCCC(=O)N(CCCN1CCCC1)C(CCCCCCCCC(=O)OCC(CCCC)CCCCCC)CCCCCCCCC(=O)OCC(CCCC)CCCCCC (stereo not drawn) [II-36]
delivery of mRNA (expression of luciferase measured by IVIS): effectively delivered

CCCCCCCCC(CCCCCC)C(=O)OCCCCCCN(CCCCO)CCCCCCOC(=O)C(CCCCCC)CCCCCCCC (stereo not drawn) [III-3]
delivery of mRNA (expression of luciferase measured by IVIS): effectively delivered

CCCCCCCCC(CCCCCC)C(=O)OCCCCCCN(CCCCCO)CCCCCCOC(=O)C(CCCCCC)CCCCCCCC (stereo not drawn) [III-7]
delivery of mRNA (expression of luciferase measured by IVIS): effectively delivered
